Data on four molecules can be found in article PMC9777025, “Silibinin Overcomes EMT-Driven Lung Cancer Resistance to New-Generation ALK Inhibitors” (Cancers, 2022).

The target of one assay is T1, TGFβR1/ALK5 (Homo sapiens, UniProt P36897).
T1 construct: gene TGFBR1
T1 sequence (P36897 34-503): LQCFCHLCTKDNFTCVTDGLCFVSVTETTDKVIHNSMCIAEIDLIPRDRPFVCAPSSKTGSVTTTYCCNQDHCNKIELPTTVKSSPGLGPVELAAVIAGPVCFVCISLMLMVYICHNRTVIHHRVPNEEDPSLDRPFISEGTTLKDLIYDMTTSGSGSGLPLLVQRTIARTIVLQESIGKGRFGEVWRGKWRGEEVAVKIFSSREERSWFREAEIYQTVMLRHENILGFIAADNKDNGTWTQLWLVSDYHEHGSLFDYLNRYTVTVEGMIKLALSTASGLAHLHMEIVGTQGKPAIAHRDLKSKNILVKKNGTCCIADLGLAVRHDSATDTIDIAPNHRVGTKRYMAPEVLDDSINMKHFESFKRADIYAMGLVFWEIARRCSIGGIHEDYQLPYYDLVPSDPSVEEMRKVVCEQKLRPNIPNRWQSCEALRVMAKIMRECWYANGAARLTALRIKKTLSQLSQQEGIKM
Description: LanthaScreen Eu kinase binding assay (TR-FRET tracer displacement), 10-point titration.

The next assay addresses T2, TGFβR2 (Homo sapiens, UniProt P37173).
T2 construct: gene TGFBR2
Described as above.

The test system of another assay is H3122. Description: cells. The conditions noted are these: Homo sapiens, NCI-H3122; without silibinin. Details: species or system H2228, H2228/CR, H3122/CR; MTT cell viability assay, absorbance at 570 nm, IC50 by interpolation. Here is the method: (§1) 2.5. Cell Viability Assay The cell viability effects of ALK–TKIs and silibinin were determined using the colorimetric MTT (3-4,5-dimethylthiazol-2-yl-2,5-diphenyl-tetrazolium bromide) reduction assay. Dose-response curves to graded concentrations of drugs were plotted as a percentage of the control cell absorbance, which was obtained from control cells containing the vehicle processed simultaneously. For each treatment, cell viability was evaluated using the following equation: (OD570 of the treated sample/OD570 of the untreated sample) × 100. Sensitivity to agents was expressed in terms of the concentrations required for a 50% (IC50) reduction in cell viability. Since the percentage of control absorbance was considered to be the surviving fraction of cells, the IC50 values were defined as the concentration of drug that produced a 50% reduction in control absorbance (by interpolation).

The subject of a further assay is H2228. Description: cells. Details: species or system H2228/CR, H3122, H3122/CR; MTT cell viability assay, absorbance at 570 nm, IC50 by interpolation. The conditions noted are these: Homo sapiens, NCI-H2228; without silibinin. Here is the method:
as §1

A further assay relates to T3, H2228/CR.
T3 construct: crizotinib-resistant H2228
Kind of assay: cells. Set-up: species or system H3122, H3122/CR; MTT cell viability assay, absorbance at 570 nm, IC50 by interpolation. As to conditions: Homo sapiens, NCI-H2228; without silibinin. As to the method: as §1

In another assay the test system is T4, H3122/CR.
T4 construct: crizotinib-resistant H3122
Kind of assay: cells. Details: species or system H2228, H2228/CR; MTT cell viability assay, absorbance at 570 nm, IC50 by interpolation. The conditions noted are these: Homo sapiens, NCI-H3122; without silibinin. As to the method:
as §1

Structures are written as SMILES.

T2 sequence (P37173 23-567): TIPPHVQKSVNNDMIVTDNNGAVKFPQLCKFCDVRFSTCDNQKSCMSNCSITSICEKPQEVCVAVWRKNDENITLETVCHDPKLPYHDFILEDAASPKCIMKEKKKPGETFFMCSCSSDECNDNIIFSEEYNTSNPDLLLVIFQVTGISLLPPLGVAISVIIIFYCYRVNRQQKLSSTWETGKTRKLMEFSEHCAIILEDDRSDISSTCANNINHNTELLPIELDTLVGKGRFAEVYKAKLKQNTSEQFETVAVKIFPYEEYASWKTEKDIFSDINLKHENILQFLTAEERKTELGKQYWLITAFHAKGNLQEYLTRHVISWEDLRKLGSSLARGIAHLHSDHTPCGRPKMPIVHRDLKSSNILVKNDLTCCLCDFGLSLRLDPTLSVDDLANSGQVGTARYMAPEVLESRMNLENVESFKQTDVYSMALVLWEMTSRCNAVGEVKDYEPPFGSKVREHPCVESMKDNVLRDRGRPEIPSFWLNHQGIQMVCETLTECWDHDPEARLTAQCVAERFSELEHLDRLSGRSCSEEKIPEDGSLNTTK

Take `COc1cc(C2Oc3cc([C@H]4Oc5cc(O)cc(O)c5C(=O)[C@@H]4O)ccc3OC2CO)ccc1O` (mixture of isomers) [silibinin]: the figures for the IC50 at TGFβR1/ALK5 and at TGFβR2 were 70000 nM and 56000 nM, respectively.
As for `COc1cc(N2CCC(N3CCN(C)CC3)CC2)ccc1Nc1ncc(Cl)c(Nc2ccccc2P(C)(C)=O)n1` [brigatinib], the IC50 in the assay with H3122 was 20 nM; in the assay on H2228, 500 nM; with H2228/CR it was 3800 nM; in the assay with H3122/CR, 120 nM.
On to `C[C@@H](Oc1cc(-c2cnn(C3CCNCC3)c2)cnc1N)c1c(Cl)ccc(F)c1Cl` [crizotinib], for which the IC50 with H3122 was 290 nM; with H2228, 2100 nM; with H2228/CR, 10600 nM; in the assay on H3122/CR, 1080 nM.
As to `C[C@H]1Oc2cc(cnc2N)-c2c(nn(C)c2C#N)CN(C)C(=O)c2ccc(F)cc21` [lorlatinib], the IC50 in the assay on H3122 stood at 4 nM; in the assay with H2228, 1000 nM; in the assay with H2228/CR, 83000 nM; in the assay with H3122/CR it was 20 nM.
